The source made the active and inactive calls. No cut-off for these calls is given here.
Test system: not listed separately
Assay: Drug uptake in human ASPC1 cells assessed as Vmax measured at 10 mins
Type: ADME, cell-based
Conditions: aspc1, 10 min
With CC(C)[C@]12O[C@H]1[C@@H]1O[C@]13[C@]1(O[C@H]1C[C@H]1C4=C(CC[C@@]13C)C(=O)OC4)[C@@H]2OC(=O)[C@@H](N)CCCCN the Vmax was 3.41 nmol/mg.

Test system: MIA PaCa-2
Assay: Cytotoxicity against human MIA PaCa-2 cells assessed as reduction in cell viability pretreated with glycine for 30 mins by MTT assay
Type: functional, cell-based
Conditions: not given
With CC(C)[C@]12O[C@H]1[C@@H]1O[C@]13[C@]1(O[C@H]1C[C@H]1C4=C(CC[C@@]13C)C(=O)OC4)[C@@H]2OC(=O)[C@@H](N)CCCCN the Activity was “inactive”.

Test system: not listed separately
Assay: Drug uptake in human ASPC1 cells in presence of glycine
Type: ADME, cell-based
Conditions: not given
In the case of CC(C)[C@]12O[C@H]1[C@@H]1O[C@]13[C@]1(O[C@H]1C[C@H]1C4=C(CC[C@@]13C)C(=O)OC4)[C@@H]2OC(=O)[C@@H](N)CCCCN, the Drug uptake is reported as “Not Active”.

Test system: not listed separately
Assay: Stability in rat plasma assessed as half life
Type: ADME, cell-free
Conditions: not given
With CC(C)[C@]12O[C@H]1[C@@H]1O[C@]13[C@]1(O[C@H]1C[C@H]1C4=C(CC[C@@]13C)C(=O)OC4)[C@@H]2OC(=O)[C@@H](N)CCCCN the half-life was > 10 h.

Test system: not listed separately
Assay: Drug uptake in human HPDE cells
Type: ADME, cell-based
Conditions: not given
With CC(C)[C@]12O[C@H]1[C@@H]1O[C@]13[C@]1(O[C@H]1C[C@H]1C4=C(CC[C@@]13C)C(=O)OC4)[C@@H]2OC(=O)[C@@H](N)CCCCN the Drug uptake was “Not Active”.

Test system: not listed separately
Assay: Drug uptake in human MIA PaCa-2 cells assessed as Km
Type: ADME, cell-based
Conditions: not given
In the case of CC(C)[C@]12O[C@H]1[C@@H]1O[C@]13[C@]1(O[C@H]1C[C@H]1C4=C(CC[C@@]13C)C(=O)OC4)[C@@H]2OC(=O)[C@@H](N)CCCCN, the Km is reported as 124 µM.

Test system: not listed separately
Assay: Drug uptake in human MIA PaCa-2 cells assessed as Vmax measured at 10 mins
Type: ADME, cell-based
Conditions: mia paca-2, 10 min
With CC(C)[C@]12O[C@H]1[C@@H]1O[C@]13[C@]1(O[C@H]1C[C@H]1C4=C(CC[C@@]13C)C(=O)OC4)[C@@H]2OC(=O)[C@@H](N)CCCCN the Vmax was 3.516 nmol/mg.

Test system: not listed separately
Assay: Drug uptake in human MIA PaCa-2 cells in presence of glycine
Type: ADME, cell-based
Conditions: not given
For CC(C)[C@]12O[C@H]1[C@@H]1O[C@]13[C@]1(O[C@H]1C[C@H]1C4=C(CC[C@@]13C)C(=O)OC4)[C@@H]2OC(=O)[C@@H](N)CCCCN, the Drug uptake was “Not Active”.

Test system: not listed separately
Assay: Drug uptake in human ASPC1 cells in presence of alpha-Methyl-D,L-tryptophan
Type: ADME, cell-based
Conditions: not given
With CC(C)[C@]12O[C@H]1[C@@H]1O[C@]13[C@]1(O[C@H]1C[C@H]1C4=C(CC[C@@]13C)C(=O)OC4)[C@@H]2OC(=O)[C@@H](N)CCCCN the Drug uptake was “Not Active”.

Test system: not listed separately
Assay: Drug uptake in human MIA PaCa-2 cells in presence of lysine
Type: ADME, cell-based
Conditions: not given
For CC(C)[C@]12O[C@H]1[C@@H]1O[C@]13[C@]1(O[C@H]1C[C@H]1C4=C(CC[C@@]13C)C(=O)OC4)[C@@H]2OC(=O)[C@@H](N)CCCCN, the Drug uptake was “Not Active”.

Test system: not listed separately
Assay: Drug uptake in human ASPC1 cells assessed as Km
Type: ADME, cell-based
Conditions: not given
CC(C)[C@]12O[C@H]1[C@@H]1O[C@]13[C@]1(O[C@H]1C[C@H]1C4=C(CC[C@@]13C)C(=O)OC4)[C@@H]2OC(=O)[C@@H](N)CCCCN showed a Km of 121 µM.

Test system: not listed separately
Assay: Drug uptake in human ASPC1 cells in presence of glutamate
Type: ADME, cell-based
Conditions: not given
In the case of CC(C)[C@]12O[C@H]1[C@@H]1O[C@]13[C@]1(O[C@H]1C[C@H]1C4=C(CC[C@@]13C)C(=O)OC4)[C@@H]2OC(=O)[C@@H](N)CCCCN, the Drug uptake is reported as “Active”.

Test system: not listed separately
Assay: Drug uptake in human MIA PaCa-2 cells in presence of alpha-Methyl-D,L-tryptophan
Type: ADME, cell-based
Conditions: not given
In the case of CC(C)[C@]12O[C@H]1[C@@H]1O[C@]13[C@]1(O[C@H]1C[C@H]1C4=C(CC[C@@]13C)C(=O)OC4)[C@@H]2OC(=O)[C@@H](N)CCCCN, the Drug uptake is reported as “Not Active”.

Test system: ASPC1
Assay: Cytotoxicity against human ASPC1 cells assessed as reduction in cell viability pretreated with glycine for 30 mins by MTT assay
Type: functional, cell-based
Conditions: not given
In the case of CC(C)[C@]12O[C@H]1[C@@H]1O[C@]13[C@]1(O[C@H]1C[C@H]1C4=C(CC[C@@]13C)C(=O)OC4)[C@@H]2OC(=O)[C@@H](N)CCCCN, the Activity is reported as “inactive”.

Test system: not listed separately
Assay: Drug uptake in human MIA PaCa-2 cells in presence of glutamate
Type: ADME, cell-based
Conditions: not given
In the case of CC(C)[C@]12O[C@H]1[C@@H]1O[C@]13[C@]1(O[C@H]1C[C@H]1C4=C(CC[C@@]13C)C(=O)OC4)[C@@H]2OC(=O)[C@@H](N)CCCCN, the Drug uptake is reported as “Active”.

Test system: MIA PaCa-2
Assay: Cytotoxicity against human MIA PaCa-2 cells assessed as reduction in cell viability by MTT assay
Type: functional, cell-based
Conditions: not given
For CC(C)[C@]12O[C@H]1[C@@H]1O[C@]13[C@]1(O[C@H]1C[C@H]1C4=C(CC[C@@]13C)C(=O)OC4)[C@@H]2O [TRIPTOLIDE], the Activity was “Active”.
In the case of CC(C)[C@]12O[C@H]1[C@@H]1O[C@]13[C@]1(O[C@H]1C[C@H]1C4=C(CC[C@@]13C)C(=O)OC4)[C@@H]2OC(=O)[C@@H](N)CCCCN, the Activity is reported as “Active”.

Test system: not listed separately
Assay: Cytotoxicity against human HPDE cells assessed as reduction in cell viability by MTT assay
Type: cell-based
Conditions: not given
In the case of CC(C)[C@]12O[C@H]1[C@@H]1O[C@]13[C@]1(O[C@H]1C[C@H]1C4=C(CC[C@@]13C)C(=O)OC4)[C@@H]2O [TRIPTOLIDE], the Activity is reported as “Toxic”.
With CC(C)[C@]12O[C@H]1[C@@H]1O[C@]13[C@]1(O[C@H]1C[C@H]1C4=C(CC[C@@]13C)C(=O)OC4)[C@@H]2OC(=O)[C@@H](N)CCCCN the Activity was “Non-Toxic”.

Test system: not listed separately
Assay: Drug uptake in human MIA PaCa-2 cells
Type: ADME, cell-based
Conditions: not given
For CC(C)[C@]12O[C@H]1[C@@H]1O[C@]13[C@]1(O[C@H]1C[C@H]1C4=C(CC[C@@]13C)C(=O)OC4)[C@@H]2OC(=O)[C@@H](N)CCCCN, the Drug uptake was “Active”.

Test system: not listed separately
Assay: Stability in rat liver homogenate assessed as half life
Type: ADME, tissue-based
Conditions: not given
CC(C)[C@]12O[C@H]1[C@@H]1O[C@]13[C@]1(O[C@H]1C[C@H]1C4=C(CC[C@@]13C)C(=O)OC4)[C@@H]2OC(=O)[C@@H](N)CCCCN gave a half-life of 6 h.

Test system: not listed separately
Assay: Stability in human ASPC1 cells homogenate assessed as half life
Type: ADME, cell-based
Conditions: ASPC1 cell homogenate
CC(C)[C@]12O[C@H]1[C@@H]1O[C@]13[C@]1(O[C@H]1C[C@H]1C4=C(CC[C@@]13C)C(=O)OC4)[C@@H]2OC(=O)[C@@H](N)CCCCN gave a half-life of 8 h.

Test system: not listed separately
Assay: Drug uptake in human ASPC1 cells in presence of lysine
Type: ADME, cell-based
Conditions: not given
With CC(C)[C@]12O[C@H]1[C@@H]1O[C@]13[C@]1(O[C@H]1C[C@H]1C4=C(CC[C@@]13C)C(=O)OC4)[C@@H]2OC(=O)[C@@H](N)CCCCN the Drug uptake was “Not Active”.

Test system: not listed separately
Assay: Drug uptake in human ASPC1 cells
Type: ADME, cell-based
Conditions: not given
With CC(C)[C@]12O[C@H]1[C@@H]1O[C@]13[C@]1(O[C@H]1C[C@H]1C4=C(CC[C@@]13C)C(=O)OC4)[C@@H]2OC(=O)[C@@H](N)CCCCN the Drug uptake was “Active”.

Test system: ASPC1
Assay: Cytotoxicity against human ASPC1 cells assessed as reduction in cell viability by MTT assay
Type: functional, cell-based
Conditions: not given
With CC(C)[C@]12O[C@H]1[C@@H]1O[C@]13[C@]1(O[C@H]1C[C@H]1C4=C(CC[C@@]13C)C(=O)OC4)[C@@H]2O [TRIPTOLIDE] the Activity was “Active”.
For CC(C)[C@]12O[C@H]1[C@@H]1O[C@]13[C@]1(O[C@H]1C[C@H]1C4=C(CC[C@@]13C)C(=O)OC4)[C@@H]2OC(=O)[C@@H](N)CCCCN, the Activity was “Active”.
